# Assay results published in patent US11608313B2, “Adamantylmethylamine derivative and use thereof as pharmaceutical” (TOHOKU UNIVERSITY, priority 2017, dated 2023).
# Columns and labels:
# CaMKII = assay: Protein phosphorylation in hippocampus of APP23 mice (immunoblotting); format: in vivo; settings: APP23 mice chronically treated orally, 1 mg/kg, two months
# Description: Hippocampus samples were excised from APP23 mice, and hippocampal slices were suspended in an SDS sample buffer and analyzed for protein phosphorylation by immunoblotting using antibodies against CaMKII, CaMKIV and ERK (CaMKII: Fukunaga, et al., J. Biol. Chem. 1992, 267, 22527-22533; CaMKIV: Kasahara, et al., J. Biol. Chem. 2001, 276, 24044-24050; ERK: produced by Sigma-Aldrich). CaMKII, CaMKIV and ERK are all considered as molecules playing an important role in memory formation.
# ob/ob mice = assay: Blood glucose levels in ob/ob mice; format: in vivo; settings: chronic treatment 1 mg/kg for 4 weeks, on and after week 3
# Method: In order to determine the hypoglycemic effect of TP-014, ob/ob mice were measured for blood glucose levels using an assay kit (produced by Technicon International Inc.). The measurement was taken for 4 weeks, and chronic treatment with TP-014 (1 mg/kg) was continued for 4 weeks. […] Tolbutamide was used as a control drug. Kir6.2 channels bind to SUR1 ([…]) on the cell membrane to form channels. The mechanism of action is considered to be inhibition of Kir6.2 channels. Tolbutamide inhibits Kir6.2 channels by binding to SUR1.
# Kir6.2 channels = biological target: T1, Kir6.2 channels (Mus musculus, UniProt Q61743); assay: Patch-clamp assay of outward potassium current in Kir6.2 channel-overexpressing cells; format: cell-based; settings: 10 nM, whole-cell patch-clamp
# T1 construct: The plasmid vector having inserted therein Kir6.2 channel cDNA: pcDNA3.1-Kir6.2; expressed in transfected cells; host or cells: Neuro2A (N2A) cells, mouse neuroblastoma
# T1 sequence (Q61743 1-390): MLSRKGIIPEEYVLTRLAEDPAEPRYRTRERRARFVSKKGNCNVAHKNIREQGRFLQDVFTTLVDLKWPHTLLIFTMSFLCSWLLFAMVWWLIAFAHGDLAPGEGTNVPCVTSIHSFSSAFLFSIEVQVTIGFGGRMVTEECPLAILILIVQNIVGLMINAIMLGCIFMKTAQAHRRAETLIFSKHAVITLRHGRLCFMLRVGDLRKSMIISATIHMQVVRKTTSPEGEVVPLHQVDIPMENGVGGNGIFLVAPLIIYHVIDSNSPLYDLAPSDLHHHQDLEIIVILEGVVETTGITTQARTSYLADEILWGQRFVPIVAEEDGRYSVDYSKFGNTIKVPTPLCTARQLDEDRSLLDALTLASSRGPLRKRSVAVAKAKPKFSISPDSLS
# Description: The Kir6.2 channel-overexpressing cells obtained in Test Example 1 were used to measure potassium current discharged out of the cells by a conventional patch-clamp assay. ATP-sensitive potassium channels (Kir6.2 channels) are localized in the cell membranes of nerve cells. When the channels are inhibited and closed, the threshold of the nerve cell membranes increases to create a condition analogous to temporal generation of action potential, with the result that intracellular potassium current is discharged out of the cells and instead extracellular calcium current enters the cells. Immunoblotting of Kir6.2 channel-overexpressing cells (prepared by the aforementioned method) using an anti-Kir6.2 channel antibody (prepared by a conventional method) (n=5, under the same conditions as in Test Example 1, except for using the anti-Kir6.2 channel antibody) confirmed that Kir6.2 channels were overexpressed in N2A cells (FIG. 2-1; upper: immunoblot staining images; lower: quantitative representations of the signal intensity of staining bands).
# [1] = tested on: olfactory bulbectomized mice (OBX mice); assay: Cognitive function in olfactory bulbectomized mice (Y-maze, novel object recognition and other tests); format: in vivo; settings: chronic oral treatment for 2 weeks
# Method: The same experiment as in Test Example 4 was carried out using olfactory bulbectomized mice (OBX mice) as a neurodegenerative disease model. […] The OBX mice were prepared from 10-week-old DDY male mice (Nippon SLC, Hamamatsu, Japan). Olfactory bulbectomy surgery was carried out under anesthesia with pentobarbital sodium (50 mg/kg i.p.; Dainippon, Osaka, Japan). The mice were fixed on a stereotaxic apparatus to drill a 1 mm diameter hole in the skull above the olfactory bulb. The olfactory bulb was aspirated without causing damage to the prefrontal cortex. A sham group was prepared by the same procedure as that for the OBX group, without aspiration of olfactory bulb. One week was allowed for recovery from surgery, and behavioral analyses were performed on the day following the treatment with the test compound for 14 days (2 weeks).
# The same model mice as described above were orally treated with a single dose of each of the test compounds (1 mg/kg), and analyzed after 1 hour by Y-maze test and novel object recognition test. The results are shown in FIGS. 22-3 and 22-4 (Y-maze test), and FIG. 22-5 (novel object recognition test).
# APP23 mice = assay: Y-maze test in APP23 mice; format: in vivo; settings: 1 mg/kg orally once a day for two months
# Method: FIGS. 4-1 to 4-4 show the results of behavioral analyses. FIGS. 4-1 and 4-2 show the results of analysis of attentional function in wild-type mice (C57BL/6J, Japan SLC) v.s. APP23 mice (n=5 per group) by conventional Y-maze test. […] In the Y-maze test, mice are allowed to freely walk between three arms for 8 minutes. Here, the different arms are designated as A, B and C. A mouse positioned in arm A can move to arm B or C. If the mouse moves to arm B, then the mouse may move to arm C. Such a mouse moving sequentially between arms A, B and C is regarded as a mouse giving correct answer. […] The arms to which a mouse move are recorded in the order they are chosen by the mouse, and the number of times that a mouse moves between three arms within a specified time is counted and regarded as “total arm entries”. Further, the number of correct-answers (the number of times that a mouse moving sequentially between three different arms) is counted and regarded as the number of alternation behaviors (“No. of alternations”). The percentage of “No. of alternations” relative to the number obtained by subtracting 2 from “total arm entries” is expressed as percent alternation (%) which serves as an index for normal alternation behavior (correct answer rate in spatial working memory). […]
structure (smiles),measurement,setting,value
"O=C(N[C@@H](c1ccccc1)[C@H]1[C@H]2C[C@@H]3C[C@](Cl)(C2)C[C@@]1(OC(=O)C(F)(F)F)C3)C(F)(F)F [TP-014, (1S,2R,3S,5S,7S)-5-chloro-2-((R)-phenyl(2,2,2-trifluoroacetamido)methyl)adamantan-1-yl 2,2,2-trifluoroacetate]",CaMKII phosphorylation in hippocampus,CaMKII,increased CaMKII phosphorylation
same,blood glucose levels,ob/ob mice,significantly decreased
same,outwardly flowing potassium current,Kir6.2 channels,suppressed
same,cognitive function impairment,[1],significantly improved
same,"attentional function (Y-maze test, percent alternation)",APP23 mice,significantly enhanced
